The record followed here is patent US20250154105A1, “POLYCYCLIC COMPOUND AND USE THEREOF” (TYK MEDICINES, INC., priority 2021, published 2025).

This assay relates to YAP-TEAD. The assay is described as follows: YAP-TEAD inhibitor activity by Nano luciferase method (8xGTiiC-nLuc reporter in 293T cells). The assay is classed as cell-based. The settings on record: Homo sapiens, HEK-293T, 48 hours incubation, read-out: Nano-luciferase detection (IC50). An excerpt: EXAMPLE 2: YAP-TEAD INHIBITOR ACTIVITY WAS DETECTED BY NANO LUCIFERASE METHOD
(1) Experimental materials and equipments: 293T cells were purchased from NANJING COBIOER BIOSCIENCES CO., LTD. DMEM medium (High sugar, no phenol red, Bio-Channel), DMSO (dimethyl sulfoxide), Lipo6000™ transfection reagent (Beyotime), pGL3B-8xGTiiC-nLuc-CMV-fLuc plasmid, 0.25% EDTA-Tripsin (trypsin digest), 1×PBS (phosphate buffer, PH7.2), 96-well white cell culture plate (PerkinElmer), fetal bovine serum (FBS), 10,000 U/mL penicillin-G/streptomycin, high-speed freezing centrifuge (EPPENDORF 5810R), 37° C. CO2 incubator, Vi-cell® Cell Counter, Envision Microplate Reader (PerkinElmer).
The revived 293T cells were inoculated into a 10 cm culture dish and placed in an incubator with 5% CO2, and cultured at constant temperature of 37° C. To ensure transfection efficiency, cells at logarithmic phase (cell density of approximately 50%-70%) should be used.
On the day before transfection, cells at the logarithmic phase were digested with Trypsin-EDTA, and culture medium was added to terminate digestion. The cell suspension was prepared by blowing and mixing using a pipette.
Cell concentration was measured using Vi-cell, and the cell suspension was diluted to a suspension of 5*10^^5 cells per milliliter. After preparing the cell suspension, the suspension was gently mixed. 10 ml of liquid was added to a 10 cm culture dish. In this way, the number of cells in each 10 cm culture dish was 5*10^^6. The cells were incubated at a constant temperature of 37° C. for 1 day in an incubator with 5% CO2.
Two clean and sterile centrifuge tubes were taken and added with 750 μL opti-MEM Medium without antibiotics and serum, respectively. Then one tube was added with 15 μg Plasmid (pGL3B-8xGTiiC-nLuc-CMV-fLuc), and gently blew and mixed well using a pipette; the other tube was added with Lipo6000 transfection reagent, and gently blew and mixed using a pipette. After standing at room temperature for 5 minutes, the culture solution containing DNA was added gently to the culture solution containing Lipo6000 transfection reagent, and mixed well by gently inverting the centrifuge tube, then standing at room temperature for 5 minutes.
The above mixture was added evenly to a 10 cm culture dish and replaced with fresh complete culture medium after 6 hours of cultivation.
After transfection for 1 day, cells were digested with Trypsin EDTA, and culture medium was added to terminate the digestion. The cell suspension was prepared by blowing and mixing using a pipette.
Cell concentration was measured using Vi-cell, and the cell suspension was diluted to a suspension of 20000 cells per milliliter.
After preparing the cell suspension, the suspension was gently mixed, and added to 96-well plate with 100 μL per well. Thus, the density of the cells to be tested is 2000 cells per well.
The inoculated cell culture plate was placed in the incubator for cultivation, and after about 24 hour, compounds with concentration gradient were added.
10 mM compound stock solution was diluted with culture medium to 50 μM. Compound solution of 50 μM was added to the third column of the deep well plate, 216 μL of culture medium containing 0.5% DMSO was added to the fourth to eleventh columns, successively.
Gradient dilution: taking 100 μL of solution from the third column and adding the solution to the fourth column and mixing well; then taking 100 µL of solution from the fourth column again and adding the solution to the fifth column, repeating this operation until the eleventh column.
Taking 25 μL of compound solution from the deep well plate and adding it to a 96-well culture plate using a multi-channel pipette. Repeating four times on the 96 well plate for each compound. Finally, a concentration gradient of 1:3.16 was formed in the 96-well plate with a maximum concentration of 10,000 nM. The • (5) Addition of Nano Luciferase Detection Reagent and Read […]
With `CC(C)(C)OC(=O)c1ccc2c(c1)c(=O)ccn2-c1ccc(C(F)(F)F)cc1` [Example T-4], the IC50 was 1000 to 5000 nM.

`COC[C@@H](C)NC(=O)c1ccc2c(c1)c(=O)ccn2-c1ccc(C(F)(F)F)cc1` [Example T-36]: the IC50 is 1000 to 5000 nM.

Take `O=C(c1ccc2c(c1)c(=O)ccn2-c1ccc(C(F)(F)F)cc1)N1CC(O)C1` [Example T-37]: the IC50 lay within 1000 to 5000 nM.

Turning to `C[C@H](NC(=O)c1ccc2c(c1)c1c(c(=O)n2-c2ccc(C(F)(F)F)cc2)CC(F)CC1)c1ccccn1` (some centres unmarked) [Example T-304], the IC50 is at most 1000 nM.

`C[C@H](NC(=O)c1ccc2c(c1)c1c(c(=O)n2-c2ccc(C(F)(F)F)cc2)C(F)CCC1)c1ccccn1` (some centres unmarked) [Example T-305]: the IC50 was at most 1000 nM.

`C[C@H](NC(=O)c1ccc2c(c1)c1c(c(=O)n2-c2ccc(C(F)(F)F)cc2)CC(F)(F)CC1)c1ccccn1` [Example T-308]: the IC50 is at most 1000 nM.

For the compound `C[C@H](NC(=O)c1ccc2c(c1)c1c(c(=O)n2-c2ccc(C(F)(F)F)cc2)C(F)(F)CCC1)c1ccccn1` [Example T-309], the IC50 is at most 1000 nM.

With `CC1OCc2c1c(=O)n(-c1ccc(C(F)(F)F)cc1)c1ncc(C(=O)N[C@@H](C)c3ccccn3)cc21` (some centres unmarked) [Example T-438], the IC50 fell in the range of 1000 to 5000 nM.

On to `CCS(=O)(=O)Nc1ccc2c(c1)c(C)cc(=O)n2-c1ccc(C(F)(F)F)cc1` [Example T-442], for which the IC50 was at most 1000 nM.

Take `CC(=O)Nc1ccc2c(c1)c(C)cc(=O)n2-c1ccc(C(F)(F)F)cc1` [Example T-444]: the concentration for half-maximal inhibition (IC50) was in the range of 1000 to 5000 nM.

As for `Cc1cc2cc(C(=O)N[C@@H](C)c3cccc(N)n3)cnc2n(-c2ccc(C(F)(F)F)cc2)c1=O` [Example T-461], the concentration for half-maximal inhibition (IC50) is at most 1000 nM.

As usually defined, the IC50 is the concentration at which inhibition is half-maximal.
